Values quoted from earlier work as cited in patent US12472264B2, “Cell-penetrating peptides” (Oxford University Innovation Limited, priority 2018, dated 2025).

Test system: exon 51
Conditions: background statement on FDA accelerated approval, September 2016

## eteplirsen
  levels of dystrophin restoration: approximately 1 % of normal dystrophin levels
